Reference: PubChem BioAssay AID1996
In brackets after ≈: the same amount, converted by molar mass.

Conditions: buffer; pH 7.4; 200.0 µM
For COCCNC(=S)N(c1ccccc1)C(C)C, the solubility kinetic was > 37.9 µg/mL.
With CCc1ccc2c(CN3CCC(C(=O)OC)CC3)cc(=O)oc2c1 the solubility kinetic was > 49.4 µg/mL.
Work on O=C1CSC(c2ccc([N+](=O)[O-])cc2)N1c1ccc(O)cc1 (stereo not given) yielded a solubility kinetic of 46.4 µg/mL (≈ 147 µM).
Molecule COC(=O)c1cccc(Nc2ccc([N+](=O)[O-])cn2)c1 has a solubility kinetic of 0.3 µg/mL (≈ 1.1 µM).
CC1CC(=O)Nc2ccccc2N1S(=O)(=O)c1cccs1 (stereo not given) gave a solubility kinetic of 17 µg/mL (≈ 52.7 µM).
With O=C(CN1C(=O)C2CCCCC2C1=O)Nc1ccccc1C(=O)O (stereo not given) the solubility kinetic was > 49.6 µg/mL.
In the case of CNC(=S)Nc1ccc(C)c(NC(=S)NC)c1, the solubility kinetic is reported as > 40.3 µg/mL.
With CC(C)CCNS(=O)(=O)c1cc2c3c(c1)CCN3C(=O)CC2 the solubility kinetic was 46 µg/mL (≈ 143 µM).
In the case of CCS(=O)(=O)N1CCC(C(=O)Oc2ccccc2OC)CC1, the solubility kinetic is reported as > 49.1 µg/mL.
For CCCNC(=O)CN1CCC(c2nc3ccccc3[nH]2)CC1, the solubility kinetic was 34 µg/mL (≈ 113 µM).
With Clc1nn2cnnc2c2ccccc12 the solubility kinetic was > 30.7 µg/mL.
In the case of COc1ccc(S(=O)(=O)N2CC(=O)Nc3ccccc32)cc1F, the solubility kinetic is reported as > 50.5 µg/mL.
CCC1(CC)Cc2ccccc2-c2nc(CN(C)C)[nH]c(=O)c21 showed a solubility kinetic of 10.8 µg/mL (≈ 34.7 µM).
For Br.CCn1c2c(c(=N)c3ccccc31)CCC2, the solubility kinetic was > 44 µg/mL.
O=C(CNC(=O)Cc1cccc2ccccc12)NCc1ccccc1F showed a solubility kinetic of 36.5 µg/mL (≈ 104 µM).
With Cc1cc(C)cc(C(=O)OCC(=O)N2CCCCCC2)c1 the solubility kinetic was > 43.4 µg/mL.
With O=C(CCC(=O)N1CCc2ccccc2C1)NCCc1ccc(Cl)cc1 the solubility kinetic was > 55.6 µg/mL.
For O=C(NC1CCCCCCC1)c1ccc(F)cc1, the solubility kinetic was 25.8 µg/mL (≈ 103 µM).
With COc1ccccc1CC(=O)N(Cc1ccccc1)c1ccc(C)cc1 the solubility kinetic was 10 µg/mL (≈ 28.9 µM).
Work on Cc1ccsc1C(=O)OCC(=O)N(Cc1ccccc1)C(C)C yielded a solubility kinetic of 40.2 µg/mL (≈ 121 µM).
For COc1ccc2c(c1)CC(C(=O)Nc1ccc(Cl)cc1)/C(=N/O)O2 (stereo not given), the solubility kinetic was < 0.4 µg/mL.
With CC(=O)c1ccccc1Oc1ncnc(N)c1[N+](=O)[O-] the solubility kinetic was > 41.1 µg/mL.
Work on O=S(=O)(c1ccccc1)N1CC=C(c2ccccc2)CC1 yielded a solubility kinetic of 1.1 µg/mL (≈ 3.67 µM).
With CC(C)(C)S(=O)(=O)c1cnc(N2CCCCC2)nc1N the solubility kinetic was > 44.8 µg/mL.
With Cc1ccc(-c2csc(NC(=O)c3cccc(C)c3)c2C(=O)O)cc1 the solubility kinetic was > 52.7 µg/mL.
COC(=O)c1ccc(NC(=O)c2ccc3nsnc3c2)cc1 gave a solubility kinetic of 1.3 µg/mL (≈ 4.15 µM).
For CCN1CCCC1CNc1ccc(S(C)(=O)=O)cc1[N+](=O)[O-] (stereo not given), the solubility kinetic was > 49.1 µg/mL.
With CC(C)NC(=O)NC(=O)COC(=O)C1(C)CC1(Cl)Cl (stereo not given) the solubility kinetic was > 46.7 µg/mL.
COc1ccc(NC(=O)COc2ccccc2)cc1Cl gave a solubility kinetic of 34 µg/mL (≈ 117 µM).
Work on CC(=O)c1cc(C(=O)Nc2ccc3ccccc3c2)c(C)o1 yielded a solubility kinetic of 34.5 µg/mL (≈ 118 µM).
With CC(Sc1nnc(C(F)(F)F)n1C)C(=O)Nc1ccc(N2CCOCC2)cc1 (stereo not given) the solubility kinetic was > 62.3 µg/mL.
With CC(C)CC1(C)NC(=O)N(CC(=O)Nc2ccc3c(c2)OCCO3)C1=O (stereo not given) the solubility kinetic was > 54.2 µg/mL.
For O=C(O)CNC(=S)N(Cc1ccccc1Cl)C1CCCC1, the solubility kinetic was > 49 µg/mL.
With COc1ccc(NC(=O)COC(=O)c2ccc(F)cc2F)cc1 the solubility kinetic was > 48.2 µg/mL.
In the case of N#Cc1cccc(S(=O)(=O)NCCOc2ccccc2F)c1, the solubility kinetic is reported as > 48.1 µg/mL.
In the case of Cc1nc2sc(C(N)=O)c(N)c2c2c1CCCC2, the solubility kinetic is reported as 9.3 µg/mL (≈ 35.6 µM).
With NC12NC(=O)C3(O)C4C5CC(C6C5C3C61)C42 (stereo not given) the solubility kinetic was > 32.7 µg/mL.
For CCc1sc(C(=O)N2CCN(C(=O)c3ccccc3)CC2)cc1C, the solubility kinetic was > 51.4 µg/mL.
Molecule O=C(NCC1CCCO1)c1cc(-c2ccccc2F)no1 (stereo not given) has a solubility kinetic of 42.4 µg/mL (≈ 146 µM).
With CCOC(=O)C1CCN(Cc2ccc(Cl)nc2)CC1 the solubility kinetic was > 42.4 µg/mL.
COc1ccccc1Oc1ccnc2cc(Cl)ccc12 gave a solubility kinetic of 9.1 µg/mL (≈ 31.8 µM).
Work on COc1cccc2[nH]c(C(=O)NCCc3ccccc3)cc12 yielded a solubility kinetic of 1 µg/mL (≈ 3.4 µM).
Work on CC(C)Oc1ccc(Cn2c(=O)oc3ccccc32)cc1 yielded a solubility kinetic of 0.7 µg/mL (≈ 2.47 µM).
With CCN(C(=O)C1CCCO1)c1ccccc1 (stereo not given) the solubility kinetic was 25.2 µg/mL (≈ 115 µM).
For O=C(CNC(=O)c1ccccc1F)OCC(=O)c1c[nH]c2ccccc12, the solubility kinetic was 43 µg/mL (≈ 121 µM).
In the case of CC(C)(C)NC(=O)c1cc2c(ccc3ccccc32)oc1=O, the solubility kinetic is reported as 2.5 µg/mL (≈ 8.46 µM).
In the case of O=C1CSC(c2ccc(F)c(F)c2)N1c1ccccc1F (stereo not given), the solubility kinetic is reported as 38.3 µg/mL (≈ 124 µM).
In the case of COC(=O)c1ccc(N2CCS(=O)(=O)CC2)cc1, the solubility kinetic is reported as > 40.4 µg/mL.
For CC(C)(C)C(=O)NC(CC(=O)O)c1ccccc1 (stereo not given), the solubility kinetic was > 37.4 µg/mL.
For Cc1ccc(NC(=O)CNc2cc(S(=O)(=O)N3CCOCC3)ccc2N2CCOCC2)cc1S(=O)(=O)N(C)C, the solubility kinetic was 5.3 µg/mL (≈ 9.11 µM).
With CC(=O)c1c(COC(=O)c2ccc(F)cc2)nc2ccccc2[n+]1[O-] the solubility kinetic was 2.4 µg/mL (≈ 7.05 µM).
For O=C(Nc1ccon1)c1sc2cc(Cl)ccc2c1Cl, the solubility kinetic was < 0.3 µg/mL.
O=C(COC(=O)C1CCCCC1)Nc1cc([N+](=O)[O-])ccc1F showed a solubility kinetic of 36.4 µg/mL (≈ 112 µM).
COc1ccc2[nH]cc(CCNC(=O)Cc3c(F)cccc3Cl)c2c1 gave a solubility kinetic of 3.9 µg/mL (≈ 10.8 µM).
In the case of CC1(C(=O)Nc2ccc(S(=O)(=O)Nc3ncccn3)cc2)CCCC1, the solubility kinetic is reported as > 54.1 µg/mL.
In the case of O=C(O)C1CCCN1S(=O)(=O)c1ccc(F)cc1 (stereo not given), the solubility kinetic is reported as > 41 µg/mL.
In the case of CC(C)(C)c1ccc(N2C(=O)CC(c3ccccc3)C2=O)cc1 (stereo not given), the solubility kinetic is reported as < 0.7 µg/mL.
With CCc1ccccc1N1C(=O)CC(Sc2nccc(C)n2)C1=O (stereo not given) the solubility kinetic was 47.3 µg/mL (≈ 144 µM).
In the case of CCCCOCCCNC(=O)N[C@H](C(=O)OC)C(C)CC (stereo not given in full), the solubility kinetic is reported as > 45.4 µg/mL.
In the case of O=[N+]([O-])c1ccc(-c2cnc[nH]2)cc1, the solubility kinetic is reported as > 28.4 µg/mL.
